# According to US20230062100A1, “SUBSTITUTED AMINOQUINOLONES AS DGKALPHA INHIBITORS FOR IMMUNE ACTIVATION” (Bayer Aktiengesellschaft, priority 2019, published 2023):
# pIC50: −log10 of the molar value.
# Target: DGKα (Homo sapiens, UniProt P23743)
# Assay: Human DGKα kinase activity inhibition assay (ADP-Glo)
# Format: biochemical
# Conditions: in vitro human DGKα kinase activity inhibition assay
# Description: Human DGKα inhibitory activity of compounds of the present invention was quantified employing the human DGKα kinase activity assay as described in the following paragraphs. In essence, the enzyme activity was measured by quantification of the adenosine-di-phosphate (ADP) generated as a co-product of the enzyme reaction via the “ADP-Glo™ Kinase Assay” kit from the company Promega. This detection system works as follows: In a first step the ATP not consumed in the kinase reaction is quantitatively converted to cAMP employing an adenylate cyclase (“ADP-Glo-reagent”), then the adenylate cyclase is stopped and the ADP generated in the kinase reaction converted to ATP, which subsequently generates in a luciferase-based reaction a glow-luminescence signal (“Kinase Detection Reagent”). C-terminally FLAG-tagged, recombinant full-length human DGKα (expressed in baculovirus infected insect cells, purified using anti-Flag pulldown and size exclusion chromatography as described below, DGKα_hu_1) was used as enzyme. As substrate for the kinase 1,2-dioleoyl-sn-glycerol, reconstituted in octyl-β-D-glucopyranoside micelles, was used. For the preparation of the micelles, 1 volume of a 16.1 mM solution of 1,2-dioleoyl-sn-glycerol (Avanti, Cat. #O8001-25G) in chloroform was slowly evaporated using a nitrogen stream. Subsequently, 22.55 volumes of a 510 mM solution of octyl-β-D-glucopyranoside (Sigma-Aldrich, Cat. #O8001-10G) in 50 mM MOPS buffer (pH 7.4) were added, and the mixture was sonicated in an ultrasonic bath for 20 s. Then 35 volumes of 50 mM MOPS buffer (pH 7.4) were added to yield a solution of 0.28 mM 1,2 dioleoyl-sn-glycerol and 200 mM octyl-β-D-glucopyranoside, which was aliquoted, flash-frozen in liquid nitrogen, and stored at −20° C. until use. For each experiment, a fresh aliquot was quickly thawed and diluted 24-fold with aqueous assay buffer (described below) containing 95.7 μM adenosine triphosphate (Promega) to yield a 1.67-fold concentrated substrate solution. For the assay 50 nl of a 100-fold concentrated solution of the test compound in dimethyl sulfoxide (DMSO, Sigma) was pipetted into either a white 1536-well or a white low-volume 384-well microtiter plate (both Greiner Bio-One, Frickenhausen, Germany). […] The concentration of DGK a was adjusted depending of the activity of the enzyme lot and was chosen appropriate to have the assay in the linear range, a typical concentration is about 0.1 nM. The reaction was stopped by the addition of 2.5 μl of “ADP-Glo-reagent” (1 to 1.5 diluted with water) and the resulting mixture was incubated at 22° C. for 1 h to convert the ATP not consumed in the kinase reaction completely to cAMP. […] The amount of emitted light was taken as a measure for the amount of ADP generated and thereby for the activity of the DGKα.
# Sequence of DGKα (P23743 with tags, fused parts or gaps): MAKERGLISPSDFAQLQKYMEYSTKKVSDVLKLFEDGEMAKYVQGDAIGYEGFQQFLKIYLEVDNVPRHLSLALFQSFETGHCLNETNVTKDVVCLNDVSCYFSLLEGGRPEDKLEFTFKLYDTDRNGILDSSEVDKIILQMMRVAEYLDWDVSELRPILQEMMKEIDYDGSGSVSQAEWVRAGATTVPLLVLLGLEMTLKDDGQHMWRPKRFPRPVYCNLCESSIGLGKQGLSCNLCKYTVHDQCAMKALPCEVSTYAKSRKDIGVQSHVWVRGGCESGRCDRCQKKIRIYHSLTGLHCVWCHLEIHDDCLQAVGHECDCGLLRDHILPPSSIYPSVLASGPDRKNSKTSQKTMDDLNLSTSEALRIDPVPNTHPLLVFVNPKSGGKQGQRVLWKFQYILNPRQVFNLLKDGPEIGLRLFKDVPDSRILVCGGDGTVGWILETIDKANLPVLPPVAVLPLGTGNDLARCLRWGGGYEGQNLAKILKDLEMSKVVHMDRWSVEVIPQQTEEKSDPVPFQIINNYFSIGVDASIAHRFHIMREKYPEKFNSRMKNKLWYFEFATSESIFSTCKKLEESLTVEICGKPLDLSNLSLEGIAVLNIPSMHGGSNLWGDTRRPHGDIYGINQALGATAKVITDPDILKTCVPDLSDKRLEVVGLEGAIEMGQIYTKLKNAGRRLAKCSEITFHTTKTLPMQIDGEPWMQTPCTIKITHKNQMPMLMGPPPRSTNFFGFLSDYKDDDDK
row,pIC50,Structure (SMILES)
1,7.57,"Cn1c(=O)c(C#N)c(N2CCC(Oc3cccc(Cl)c3)CC2)c2ccc(Br)cc21 [Example 60, 7-bromo-4-[4-(3-chlorophenoxy)piperidin-1-yl]-1-methyl-2-oxo-1,2-dihydroquinoline-3-carbonitrile]"
2,7.51,"Cn1c(=O)c(C#N)c(N2CCC(Oc3ccc(C#N)cc3)CC2)c2ccccc21 [Example 32, 4-[4-(4-cyanophenoxy)piperidin-1-yl]-1-methyl-2-oxo-1,2-dihydroquinoline-3-carbonitrile]"
3,8.11,"Cc1cccc(OC2CCN(c3c(C#N)c(=O)n(C)c4ccc(C)cc34)CC2)c1 [Example 149, 1,6-dimethyl-4-[4-(3-methylphenoxy)piperidin-1-yl]-2-oxo-1,2-dihydroquinoline-3-carbonitrile]"
4,8.00,"Cn1c(=O)c(C#N)c(N2CCC(Oc3ccc(Cl)cc3)CC2)c2ccccc21 [Example 10, 4-[4-(4-chlorophenoxy)piperidin-1-yl]-1-methyl-2-oxo-1,2-dihydroquinoline-3-carbonitrile]"
5,7.74,"Cn1c(=O)c(C#N)c(N2CCCC(Oc3ccc(OC(F)(F)F)cc3)CC2)c2ccccc21 (single isomer, unassigned; enantiomer 2) [Example 102, 1-methyl-2-oxo-4-{4-[4-(trifluoromethoxy)phenoxy]azepan-1-yl}-1,2-dihydroquinoline-3-carbonitrile, enantiomer 2]"
6,8.24,"Cc1ccc2c(N3CCC(Oc4ccccc4)CC3)c(C#N)c(=O)n(C)c2c1 [Example 88, 1,7-dimethyl-2-oxo-4-(4-phenoxypiperidin-1-yl)-1,2-dihydroquinoline-3-carbonitrile]"
7,7.85,"Cc1ccccc1OC1CCN(c2c(C#N)c(=O)n(C)c3ccccc23)CC1 [Example 14, 1-methyl-4-[4-(2-methylphenoxy)piperidin-1-yl]-2-oxo-1,2-dihydroquinoline-3-carbonitrile]"
8,7.26,"Cn1c(=O)c(C#N)c(N2CCC(Oc3ccc(OC(F)(F)F)cc3)CC2)c2cccc(N3CCCC3=O)c21 [Example 133, 1-methyl-2-oxo-8-(2-oxopyrrolidin-1-yl)-4-{4-[4-(trifluoromethoxy)phenoxy]piperidin-1-yl}-1,2-dihydroquinoline-3-carbonitrile]"
9,6.27,"CN1CCN(c2ccc3c(N4CCC(Oc5cccc(Cl)c5)CC4)c(C#N)c(=O)n(C)c3c2)CC1 [Example 80, 4-[4-(3-chlorophenoxy)piperidin-1-yl]-1-methyl-7-(4-methylpiperazin-1-yl)-2-oxo-1,2-dihydroquinoline-3-carbonitrile]"
10,7.80,"Cn1c(=O)c(C#N)c(N2CCC(Oc3ccc(Cl)cc3)CC2)c2ccc(C3COC3)cc21 [Example 72, 4-[4-(4-chlorophenoxy)piperidin-1-yl]-1-methyl-7-(oxetan-3-yl)-2-oxo-1,2-dihydroquinoline-3-carbonitrile]"
11,7.80,"COc1ccc(COC2CCN(c3c(C#N)c(=O)n(C)c4ccccc34)CC2)cc1 [Example 109, 4-{4-[(4-methoxyphenyl)methoxy]piperidin-1-yl}-1-methyl-2-oxo-1,2-dihydroquinoline-3-carbonitrile]"
12,8.40,"Cn1c(=O)c(C#N)c(N2CCC(Oc3ccc(OC(F)F)cc3)CC2)c2ccccc21 [Example 39, 4-{4-[4-(difluoromethoxy)phenoxy]piperidin-1-yl}-1-methyl-2-oxo-1,2-dihydroquinoline-3-carbonitrile]"
13,8.60,"Cn1c(=O)c(C#N)c(N2CCC(Oc3ccc(OC(F)(F)F)cc3)CC2)c2cccc(S(C)(=O)=O)c21 [Example 136, 8-(methanesulfonyl)-1-methyl-2-oxo-4-{4-[4-(trifluoromethoxy)phenoxy]piperidin-1-yl}-1,2-dihydroquinoline-3-carbonitrile]"
14,8.24,"Cn1c(=O)c(C#N)c(N2CCC(Oc3ccccc3)CC2)c2ccc(Br)cc21 [Example 54, 7-bromo-1-methyl-2-oxo-4-(4-phenoxypiperidin-1-yl)-1,2-dihydroquinoline-3-carbonitrile]"
15,7.48,"Cn1cc(-c2ccc(OC3CCCN(c4c(C#N)c(=O)n(C)c5ccccc45)CC3)cc2)cn1 (racemic) [Example 105, (rac)-1-methyl-4-{4-[4-(1-methyl-1H-pyrazol-4-yl)phenoxy]azepan-1-yl}-2-oxo-1,2-dihydroquinoline-3-carbonitrile]"
16,6.92,"CN1CCCN(c2ccc(OC3CCN(c4c(C#N)c(=O)n(C)c5ccccc45)CC3)cc2)C1=O [Example 21, 1-methyl-4-{4-[4-(3-methyl-2-oxo-1,3-diazinan-1-yl)phenoxy]piperidin-1-yl}-2-oxo-1,2-dihydroquinoline-3-carbonitrile]"
17,7.49,"Cn1c(=O)c(C#N)c(N2CCC(Sc3ccccc3)CC2)c2cc(C3CC3)ccc21 [Example 147, 6-cyclopropyl-1-methyl-2-oxo-4-[4-(phenylsulfanyl)piperidin-1-yl]-1,2-dihydroquinoline-3-carbonitrile]"
18,8.13,"Cn1c(=O)c(C#N)c(N2CCCC(Oc3ccc(OC(F)(F)F)cc3)CC2)c2ccccc21 (single isomer, unassigned; enantiomer 1) [Example 101, 1-methyl-2-oxo-4-{4-[4-(trifluoromethoxy)phenoxy]azepan-1-yl}-1,2-dihydroquinoline-3-carbonitrile, enantiomer 1]"
19,7.80,"Cc1ccccc1COC1CCN(c2c(C#N)c(=O)n(C)c3ccccc23)CC1 [Example 114, 1-methyl-4-{4-[(2-methylphenyl)methoxy]piperidin-1-yl}-2-oxo-1,2-dihydroquinoline-3-carbonitrile]"
20,8.00,"Cn1c(=O)c(C#N)c(N2CCC(Oc3ccc(C4CC4)cc3)CC2)c2ccccc21 [Example 37, 4-[4-(4-cyclopropylphenoxy)piperidin-1-yl]-1-methyl-2-oxo-1,2-dihydroquinoline-3-carbonitrile]"
21,7.37,"COc1cccc(COC2CCN(c3c(C(N)=O)c(=O)n(C)c4ccccc34)CC2)c1 [Example 125, 4-{4-[(3-methoxyphenyl)methoxy]piperidin-1-yl}-1-methyl-2-oxo-1,2-dihydroquinoline-3-carboxamide]"
22,8.21,"Cn1c(=O)c(C#N)c(N2CCC(Cc3ccc(F)cc3)CC2)c2ccccc21 [Example 92, 4-{4-[(4-fluorophenyl)methyl]piperidin-1-yl}-1-methyl-2-oxo-1,2-dihydroquinoline-3-carbonitrile]"
23,8.11,"Cn1c(=O)c(C#N)c(N2CCC(Oc3ccccc3)CC2)c2ccccc21 [Example 5, 1-methyl-2-oxo-4-(4-phenoxypiperidin-1-yl)-1,2-dihydroquinoline-3-carbonitrile]"
24,7.26,"Cn1c(=O)c(C#N)c(N2CCC(Oc3ccc(N4CCCC4=O)cc3)CC2)c2ccccc21 [Example 18, 1-methyl-2-oxo-4-{4-[4-(2-oxopyrrolidin-1-yl)phenoxy]piperidin-1-yl}-1,2-dihydroquinoline-3-carbonitrile]"
25,8.17,"COc1cc(C)ccc1OC1CCN(c2c(C#N)c(=O)n(C)c3ccccc23)CC1 [Example 31, 4-[4-(2-methoxy-4-methylphenoxy)piperidin-1-yl]-1-methyl-2-oxo-1,2-dihydroquinoline-3-carbonitrile]"
26,7.47,"Cn1c(=O)c(C#N)c(N2CCC(COc3cccc(Cl)c3)CC2)c2ccccc21 [Example 119, 4-{4-[(3-chlorophenoxy)methyl]piperidin-1-yl}-1-methyl-2-oxo-1,2-dihydroquinoline-3-carbonitrile]"
27,7.66,"Cn1c(=O)c(C#N)c(N2CCC(Oc3cccc(OC(F)(F)F)c3)CC2)c2ccc(Br)cc21 [Example 61, 7-bromo-1-methyl-2-oxo-4-{4-[3-(trifluoromethoxy)phenoxy]piperidin-1-yl}-1,2-dihydroquinoline-3-carbonitrile]"
28,9.03,"Cn1c(=O)c(C#N)c(N2CCC(Oc3ccc(OC(F)(F)F)cc3)CC2)c2cc(O)ccc21 [Example 167, 6-hydroxy-1-methyl-2-oxo-4-{4-[4-(trifluoromethoxy)phenoxy]piperidin-1-yl}-1,2-dihydroquinoline-3-carbonitrile]"
29,8.41,"Cn1c(=O)c(C#N)c(N2CCC(Oc3ccc(OC(F)(F)F)cc3)CC2)c2ccccc21 [Example 2, 1-methyl-2-oxo-4-{4-[4-(trifluoromethoxy)phenoxy]piperidin-1-yl}-1,2-dihydroquinoline-3-carbonitrile]"
